# Laboratory results reported in patent publication US11708562B2, “Differentiation of human embryonic stem cells” (Janssen Biotech, Inc., priority 2006, dated 2023).
# Tested on: H9P33, H9P44 and H9P48 cells
# Assay: Microarray analysis of definitive endoderm on MEFs vs MATRIGEL +/- Wnt-3A (Table VI)
# Settings: log format
# Protocol: Controls for each group included cells plated on […]-coated dishes and cultured in MEF-conditioned medium or cells plated on MEFs and cultured in ES medium. All groups contained three biological replicates and each biological replicate was repeated on two separate gene chips.
# Sample preparation, hybridization, and image analysis were performed according to the Affymetrix Human Genome U133 Plus 2.0 Array. Following normalization and a log transformation, data analysis was performed using OmniViz® software (MA) and […] (VizXLabs, WA). Significant differences in gene expression between the samples were evaluated using analysis of variance and an F-test with adjusted P-value (Benjamini and Hochberg correction) of ≤0.05. Only genes with a present call in at least one group were included in the analysis.
# [1] = DE treatment in low serum + AA on MATRIGEL
# [2] = DE treatment in low serum + AA on MEFS
substance,measurement,setting,value
Activin A: a member of the TGFβ superfamily; growth factor (R&D Systems) used to differentiate human embryonic stem cells,"mean normalized intensity: Homo sapiens chorionic somatomammotropin hormone 2 (CSH2), transcript variant 1, mRNA.",[1],1.124
same,"mean normalized intensity: Homo sapiens chorionic somatomammotropin hormone 2 (CSH2), transcript variant 4, mRNA.",[1],0.8122
same,"mean normalized intensity: Homo sapiens galanin receptor 1 (GALR1), mRNA.",[1],2.507
same,"mean normalized intensity: Homo sapiens growth hormone 2 (GH2), transcript variant 2, mRNA.",[1],0.9226
same,"mean normalized intensity: Homo sapiens hypothetical protein FLJ20075 (FLJ20075), mRNA.",[1],−0.3592
same,"mean normalized intensity: Homo sapiens mRNA for SCCA2b, complete cds.",[1],3.329
same,mean normalized intensity: Homo sapiens mRNA; cDNA DKFZp586P1124 (from clone DKFZp586P1124),[1],0.4856
same,"mean normalized intensity: Homo sapiens methyl-CpG binding protein MBD2 (MBD2) mRNA, complete cds.",[1],0.4906
same,"mean normalized intensity: Homo sapiens tachykinin, precursor 1 (TAC1), transcript variant beta, mRNA.",[1],2.773
same,"mean normalized intensity: Homo sapiens testis expressed sequence 14 (TEX14), mRNA.",[1],3.512
same,"mean normalized intensity: Homo sapiens, Similar to LIM homeobox protein 8, clone IMAGE: 4839343, mRNA.",[1],−0.06288
same,"mean normalized intensity: Homo sapiens, Similar to cadherin 6, type 2, K-cadherin (fetal kidney), clone MGC: 1470, mRNA, complete cds.",[1],2.547
same,"mean normalized intensity: Homo sapiens, Similar to hypothetical protein FLJ10058, clone MGC: 34305 IMAGE: 5167647, mRNA, complete cds.",[1],1.698
same,"mean normalized intensity: Homo sapiens, Similar to hypothetical protein FLJ32001, clone MGC: 39559 IMAGE: 4828136, mRNA, complete cds.",[1],0.5207
same,"mean normalized intensity: Homo sapiens, clone IMAGE: 4067166, mRNA",[1],0.1959
same,"mean normalized intensity: Homo sapiens, clone IMAGE: 4828836, mRNA.",[1],0.9729
same,"mean normalized intensity: Homo sapiens, serine (or cysteine) proteinase inhibitor, clade B (ovalbumin), member 3, clone MGC: 12244, mRNA, complete cds.",[1],1.969
same,mean normalized intensity: Human mRNA upregulated during camptothecin-induced apoptosis of U937 cells.,[1],0.4945
same,"mean normalized intensity: Human platelet-derived growth factor alpha-receptor (PDGFRA) mRNA, exons 13-16",[1],2.445
same,mean normalized intensity: KIAA1151 protein,[1],0.6425
same,mean normalized intensity: caldesmon 1,[1],7.092
same,"mean normalized intensity: nuclear receptor subfamily 1, group I, member 3",[1],1.779
same,mean normalized intensity: ESTs,"DE treatment in low serum + AA on MATRIGEL, gene line r2006",1.5857
same,mean normalized intensity: ESTs,"DE treatment in low serum + AA on MATRIGEL, gene line r2025",1.531
same,mean normalized intensity: ESTs,"DE treatment in low serum + AA on MATRIGEL, gene line r2032",0.1336
same,mean normalized intensity: paternally expressed 3,"DE treatment in low serum + AA on MATRIGEL, gene line r2033",2.876
same,mean normalized intensity: ESTs,"DE treatment in low serum + AA on MATRIGEL, gene line r2038",3.262
same,mean normalized intensity: paternally expressed 3,"DE treatment in low serum + AA on MATRIGEL, gene line r2093",2.874
same,mean normalized intensity: ESTs,"DE treatment in low serum + AA on MATRIGEL, gene line r2134",−1.3795
same,mean normalized intensity: ESTs,"DE treatment in low serum + AA on MATRIGEL, gene line r2148",4.454
same,mean normalized intensity: DKFZP566K1924 protein,[2],1.391
same,mean normalized intensity: H. sapiens mRNA for B-HLH DNA binding protein.,[2],3.451
same,"mean normalized intensity: Homo sapiens BCL2-interacting killer (apoptosis-inducing) (BIK), mRNA.",[2],3.562
same,"mean normalized intensity: Homo sapiens Charot-Leyden crystal protein (CLC), mRNA.",[2],2.1096
same,"mean normalized intensity: Homo sapiens HES-related repressor protein 1 HERP1 mRNA, complete cds.",[2],2.406
same,"mean normalized intensity: Homo sapiens HSPC156 protein (HSPC156), mRNA.",[2],1.296
same,"mean normalized intensity: Homo sapiens KIAA0469 gene product (KIAA0469), mRNA.",[2],2.565
same,"mean normalized intensity: Homo sapiens PNAS-123 mRNA, complete cds",[2],1.847
same,"mean normalized intensity: Homo sapiens Wilms tumor 1 (WT1), transcript variant D, mRNA.",[2],−2.435
same,"mean normalized intensity: Homo sapiens cDNA FLJ11398 fis, clone HEMBA1000637.",[2],1.849
same,"mean normalized intensity: Homo sapiens cDNA: FLJ22547 fis, clone HSI00356",[2],2.095
same,"mean normalized intensity: Homo sapiens cadherin 6, type 2, K-cadherin (fetal kidney) (CDH6), mRNA.",[2],−0.8763
same,"mean normalized intensity: Homo sapiens chorionic somatomammotropin hormone 2 (CSH2), transcript variant 1, mRNA.",[2],2.616
same,"mean normalized intensity: Homo sapiens chorionic somatomammotropin hormone 2 (CSH2), transcript variant 4, mRNA.",[2],2.218
same,"mean normalized intensity: Homo sapiens galanin receptor 1 (GALR1), mRNA.",[2],−0.338
same,"mean normalized intensity: Homo sapiens growth hormone 2 (GH2), transcript variant 2, mRNA.",[2],1.4679
same,"mean normalized intensity: Homo sapiens hypothetical protein FLJ20075 (FLJ20075), mRNA.",[2],−0.06528
same,"mean normalized intensity: Homo sapiens mRNA for SCCA2b, complete cds.",[2],0.568
same,mean normalized intensity: Homo sapiens mRNA; cDNA DKFZp586P1124 (from clone DKFZp586P1124),[2],−3.094
same,"mean normalized intensity: Homo sapiens methyl-CpG binding protein MBD2 (MBD2) mRNA, complete cds.",[2],−1.702
same,"mean normalized intensity: Homo sapiens tachykinin, precursor 1 (TAC1), transcript variant beta, mRNA.",[2],1.483
same,"mean normalized intensity: Homo sapiens testis expressed sequence 14 (TEX14), mRNA.",[2],−1.3824
same,"mean normalized intensity: Homo sapiens, Similar to LIM homeobox protein 8, clone IMAGE: 4839343, mRNA.",[2],−1.11
same,"mean normalized intensity: Homo sapiens, Similar to cadherin 6, type 2, K-cadherin (fetal kidney), clone MGC: 1470, mRNA, complete cds.",[2],2.134
same,"mean normalized intensity: Homo sapiens, Similar to hypothetical protein FLJ10058, clone MGC: 34305 IMAGE: 5167647, mRNA, complete cds.",[2],0.2156
same,"mean normalized intensity: Homo sapiens, Similar to hypothetical protein FLJ32001, clone MGC: 39559 IMAGE: 4828136, mRNA, complete cds.",[2],1.269
same,"mean normalized intensity: Homo sapiens, clone IMAGE: 4067166, mRNA",[2],0.277
same,"mean normalized intensity: Homo sapiens, clone IMAGE: 4828836, mRNA.",[2],−1.484
same,"mean normalized intensity: Homo sapiens, serine (or cysteine) proteinase inhibitor, clade B (ovalbumin), member 3, clone MGC: 12244, mRNA, complete cds.",[2],−1.566
same,mean normalized intensity: Human mRNA upregulated during camptothecin-induced apoptosis of U937 cells.,[2],−0.1892
same,"mean normalized intensity: Human platelet-derived growth factor alpha-receptor (PDGFRA) mRNA, exons 13-16",[2],2.905
same,mean normalized intensity: KIAA1151 protein,[2],1.009
same,mean normalized intensity: caldesmon 1,[2],5.634
same,"mean normalized intensity: nuclear receptor subfamily 1, group I, member 3",[2],−0.1968
same,mean normalized intensity: ESTs,"DE treatment in low serum + AA on MEFS, gene line r2006",−1.3
same,mean normalized intensity: ESTs,"DE treatment in low serum + AA on MEFS, gene line r2025",1.373
same,mean normalized intensity: ESTs,"DE treatment in low serum + AA on MEFS, gene line r2032",−1.566
same,mean normalized intensity: paternally expressed 3,"DE treatment in low serum + AA on MEFS, gene line r2033",−0.0118
same,mean normalized intensity: ESTs,"DE treatment in low serum + AA on MEFS, gene line r2038",1.5682
same,mean normalized intensity: paternally expressed 3,"DE treatment in low serum + AA on MEFS, gene line r2093",−3.492
same,mean normalized intensity: ESTs,"DE treatment in low serum + AA on MEFS, gene line r2134",−0.9461
same,mean normalized intensity: ESTs,"DE treatment in low serum + AA on MEFS, gene line r2148",5.334
